Three compounds from US10513694B2, “Thienopyrrole compounds and uses thereof” (PROMEGA CORPORATION, priority 2015, dated 2019) can be followed below.

Data set [1] addresses T1, Nluc (Oplophorus gracilirostris, UniProt Q9GV45, A31E/A60N/A81I/F95D/I117V/K70R/L54V/L99Q/M102K/N193R/P142E/Q151K/Q38R/Q45L/V71I/Y165I). In words: Multiplex RealTime-Glo / Caspase-Glo 3/7 in MCF7 cells. In kind it is cell-based. Also on record: purchased Promega Corporation. As to the method:
(§1) A) In a Corning 3570 assay plate, MCF7 cells were plated at 1,000 cells/well in 20 μL of cell culture media (EMEM supplemented with 0.01 mg/mL human recombinant insulin and 10% fetal bovine serum) and incubated in overnight. 10 μL of 4× REALTIME-GLO™ MT Cell Viability reagents (Promega Corporation) in media or 10 μL media only was added to the cells. 10 μL of 40 μM staurosporine in media or 10 μL media only (control) was added to the cells. The cells were incubated, and caspase activation monitored at 5.5 hrs post-reagent addition. To monitor caspase activation, 40 μL CASPASE-GLO® 3/7 Assay Reagent (Promega Corporation), either on its own (Caspase) or with 200 μM of JRW-0004, JRW-0013, or JRW-0042, was added. Reactions were incubated at RT, and luminescence was measured at 1 hr 10 min post-reagent addition on Tecan M1000 Pro plate reader.
(§2) When comparing the signal generated from the CASPASE-GLO® reagent in media only versus the signal generated in media containing REALTIME-GLO™ reagent, the signal is higher in the multiplex reaction.

The test system of data set [2] is Nluc enzyme. The data set is described as above. In kind it is cell-based. As to the method: as §1, §2
Data set [3] relates to Src-Nluc fusion protein. Description: Target engagement model (Src-Nluc BRET). The class given is cell-based. The following applies: HEK293 Src-Nluc -/+ 50 μg/mL digitonin; 1 μM Dasatinib-DY605 tracer; 2 hrs. As to the method: HEK293 cells were transiently transfected with Src-Nluc fusion protein. 24 hours post-transfection, cells were treated with −/+50 μg/mL digitonin to simulate a live and lytic scenario, respectively. Intact cells and permeabilized cells were labeled with 1 μM Dasatinib-DY605 tracer (impermeable) and treated with a cell impermeable thienopyrrole compound JRW-0147 response curve for 2 hrs. 10 μM furimazine was added, and a BRET ratio 610/450 nm was recorded.
(BRET reads energy transfer from a luciferase to a nearby fluorophore.)

Data set [4] deals with T1, Nluc. Description: Specificity of inhibition of Nluc luciferase: Nluc. In kind it is biochemical.
The subject of data set [5] is B2AR-Nluc or Nluc-B2AR fusion protein. Description: Cell permeability with bioluminescent imaging (HeLa, B2AR-Nluc / Nluc-B2AR). In kind it is cell-based. The following applies: 30 μM compound, 10 μM furimazine. As for the experimental part: HeLa cells were transiently transfected with Beta-2 Adrenergic Receptor-Nluc (B2AR-Nluc; C-Terminus Nluc) or Nluc-Beta-2 Adrenergic Receptor (Nluc-B2AR; N-terminus Nluc) fusion protein to anchor and orient Nluc intracellularly or extracellularly, respectively. 24 hrs post-transfection, cells were treated with −/+30 μM of a thienopyrrole compound, JRW-0147, JRW-0051, and JRW-0138. 10 μM furimazine was added, and luminescence was detected by imaging on the Olympus LV200.

Data set [6] relates to SRC-Nluc or Nluc-HaloTag. Description: Inhibition of extracellular luciferase activity (SRC-Nluc / Nluc-HaloTag BRET). In kind it is cell-based. The following applies: HEK293; 1 μM Dasatinib-DY605 (SRC-Nluc) or 100 nM NanoBRET-618 (Nluc-HaloTag). As to the method:
HEK293 were transiently transfected with either SRC-Nluc or Nluc-HaloTag. 24 hrs post-transfection, 20 k/cells were plated into wells of a 96-well plate (Costar 3600). 1 μM of the cell impermeable tracer Dasatinib-DY605 was added to the HEK293 SRC-Nluc expressing cells, and 100 nM of the cell permeable tracer NanoBRET-618, was added to the Nluc-HaloTag expressing cells. Both HEK293 SRC-Nluc and Nluc-HaloTag cells were exposed to a dose-response curve of JRW-0344.

Data set [7] has as its system HEK293 cells. Description: Cell viability and toxicity (CellTiter-Glo). The class given is cell-based. The following applies: up to 100 μM after 18 hrs. As for the experimental part:
HEK293 cells were plated at 20 k cells/well and exposed to vehicle (DMSO), digitonin (positive control for cell death), or JRW-0344 for 10 min/30 min/120 min/240 min/or 18 hrs. CellTiter-Glo (Promega Corp.) was added, and luminescence measured.

The mark [8] stands for this setting: 10 μM Stauro vs Control, 200 μM compound.
The mark [9] stands for this setting: CASPASE-GLO 3/7 reagent with 200 μM compound, 1 hr 10 min.

T1 sequence (Q9GV45 28-196 with tags or gaps with the stated changes limits assumed): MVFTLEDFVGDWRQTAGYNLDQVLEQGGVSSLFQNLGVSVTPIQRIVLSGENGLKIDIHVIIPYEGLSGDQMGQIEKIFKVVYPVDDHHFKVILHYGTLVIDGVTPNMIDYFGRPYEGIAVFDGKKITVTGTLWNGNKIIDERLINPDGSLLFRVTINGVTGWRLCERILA

Take `CCN(C(=O)Cn1c(C(=O)N[C@H]2CC[C@H](C(=O)OC)CC2)cc2sccc21)c1cccc(C)c1` [JRW-0013, trans-methyl-4-(4-(2-(ethyl(m-tolyl)amino)-2-oxoethyl)-4H-thieno[3,2-b]pyrrole-5-carboxamido)cyclohexane-1-carboxylate]: in data set [1] (setting [8]), the “Fold Cont, Media containing RealTime-Glo” value amounted to 6.29. In data set [1] (setting [9]), the “Avg (luminescence), Media containing RealTime-Glo, 10 μM Stauro” value is on record as 54338 and the “Avg (luminescence), Media containing RealTime-Glo, Control” value was determined as 8636. In data set [2] (setting [8]), the “Fold Cont, Media only” value is reported as 6.85. For the same compound, in data set [2] (setting [9]), the “Avg (luminescence), Media only, 10 μM Stauro” value stood at 55282 and the “Avg (luminescence), Media only, Control” value worked out at 8069.
Take `CCN(C(=O)Cn1c(C(=O)N[C@H]2CC[C@H](C(=O)NCCCCCC(=O)O)CC2)cc2sccc21)c1cccc(C)c1` [JRW-0147, 6-(trans-4-(4-(2-(ethyl(m-tolyl)amino)-2-oxoethyl)-4H-thieno[3,2-b]pyrrole-5-carboxamido)cyclohexane-1-carboxamido)hexanoic acid]: the “Inhibition of BRET in cell debris vs inside cells (FIGS. 15B-15C)” value in data set [3] was “inhibited BRET in cell debris, but not BRET inside cells”. In addition, the “Nluc, Avg (luminescence)” value in data set [4] ([cmpd] 0.1953125 μM) stood at 115442; in data set [4] ([cmpd] 0.390625 μM), 113278; in data set [4] ([cmpd] 0.78125 μM), 111603; in data set [4] ([cmpd] 1.5625 μM) it was 103399; in data set [4] ([cmpd] 3.125 μM) it was 96256; in data set [4] ([cmpd] 6.25 μM), 79191. The “Nluc, Avg (luminescence)” value in data set [4] ([cmpd] 12.5 μM) is 66480; in data set [4] ([cmpd] 25 μM), 54498; in data set [4] ([cmpd] 50 μM), 42630; in data set [4] ([cmpd] 100 μM) it was 32702; in data set [4] ([cmpd] 200 μM), 23722. For the same compound, the “Nluc, S/B” value in data set [4] ([cmpd] 0.1953125 μM) stood at 0.97; in data set [4] ([cmpd] 0.390625 μM) it was 0.95; in data set [4] ([cmpd] 0.78125 μM), 0.94; in data set [4] ([cmpd] 1.5625 μM) it was 0.87; in data set [4] ([cmpd] 3.125 μM) it was 0.81; in data set [4] ([cmpd] 6.25 μM) it was 0.67. Further, the “Nluc, S/B” value in data set [4] ([cmpd] 12.5 μM) turned out to be 0.56; in data set [4] ([cmpd] 25 μM) it was 0.46; in data set [4] ([cmpd] 50 μM), 0.36; in data set [4] ([cmpd] 100 μM) it was 0.27; in data set [4] ([cmpd] 200 μM) it was 0.20. Further, the “Permeability and inhibition of extracellular / intracellular Nluc by imaging (FIG. 14)” value in data set [5] is “impermeable and inhibited extracellular Nluc and enhanced intracellular Nluc”.
Take `CCN(C(=O)Cn1c(C(=O)N[C@H]2CC[C@H](C(=O)NCCCCCCS(=O)(=O)[O-])CC2)cc2sccc21)c1cccc(C)c1.[Na+]` [JRW-0344, Sodium 6-(trans-4-(4-(2-(ethyl(m-tolyl)amino)-2-oxoethyl)-4H-thieno[3,2-b]pyrrole-5-carboxamido)cyclohexane-1-carboxamido)hexane-1-sulfonate]: in data set [6], the “Inhibition of BRET (FIGS. 20A-20C)” value is recorded as “inhibits BRET in cell debris in the HEK293 SRC-Nluc expressing cells, but not in HEK293 Nluc-HaloTag expressing cells”. Also, the “Toxicity (FIG. 18A)” value in data set [7] was “no apparent toxicity”. Further, the “Nluc, Avg (luminescence)” value in data set [4] ([cmpd] 0.1953125 μM) came to 102409; in data set [4] ([cmpd] 0.390625 μM) it was 99851; in data set [4] ([cmpd] 0.78125 μM) it was 95060; in data set [4] ([cmpd] 1.5625 μM) it was 83141; in data set [4] ([cmpd] 3.125 μM), 71976; in data set [4] ([cmpd] 6.25 μM) it was 65136. For the same compound, the “Nluc, Avg (luminescence)” value is on record as 52627 in data set [4] ([cmpd] 12.5 μM); 40392 in data set [4] ([cmpd] 25 μM); 32113 in data set [4] ([cmpd] 50 μM); 23445 in data set [4] ([cmpd] 100 μM); 16291 in data set [4] ([cmpd] 200 μM). The “Nluc, S/B” value was 0.92 in data set [4] ([cmpd] 0.1953125 μM); 0.90 in data set [4] ([cmpd] 0.390625 μM); 0.86 in data set [4] ([cmpd] 0.78125 μM); 0.75 in data set [4] ([cmpd] 1.5625 μM); 0.65 in data set [4] ([cmpd] 3.125 μM); 0.59 in data set [4] ([cmpd] 6.25 μM). In addition, the “Nluc, S/B” value in data set [4] ([cmpd] 12.5 μM) stood at 0.47; in data set [4] ([cmpd] 25 μM), 0.36; in data set [4] ([cmpd] 50 μM) it was 0.29; in data set [4] ([cmpd] 100 μM), 0.21; in data set [4] ([cmpd] 200 μM), 0.15.
